Laboratory results: patent US10519148B2, “Acrylic acid derivative, preparation method and use in medicine thereof” (Zhejiang Hisun Pharmaceutical Co., Ltd., priority 2015, dated 2019)

Key:
[1] = molecular target: T1, recombinant human estrogen receptor ERα ligand binding domain (Homo sapiens, UniProt P03372); test: LanthaScreen TR-FRET competition binding assay with estrogen receptor ERα ligand binding domain; details: TR-FRET competition with Fluormone ES2, ERα-LBD (GST); read-out: IC50 (nM) ER Reporter
T1 construct: purchased Invitrogen PV4543
T1 sequence (P03372 311-547 limits assumed): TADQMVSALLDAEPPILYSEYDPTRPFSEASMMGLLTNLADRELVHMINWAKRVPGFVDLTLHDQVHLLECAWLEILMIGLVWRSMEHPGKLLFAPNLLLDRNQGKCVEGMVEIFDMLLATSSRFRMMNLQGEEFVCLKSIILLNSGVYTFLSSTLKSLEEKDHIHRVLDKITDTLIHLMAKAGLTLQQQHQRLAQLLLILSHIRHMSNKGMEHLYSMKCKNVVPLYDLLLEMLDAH
Source text: The present invention utilizes the Lantha Screen™ Time-resolved Fluorescence Resonance Energy Transfer (TR-FRET) to assess the ability of the compounds to bind to the isolated ligand domain of estrogen receptor Era in competition assay. The fluorophore (Fluormone ES2, product code P2645) and the recombinant human estrogen receptor ERα ligand binding domain (product code PV4543) using in the TR-FRET were purchased from Invitrogen. The design principle of this assay is as follows: the estrogen receptor ERα-LBD (GST) and the fluorophore-containing ligand form a receptor/fluorophore complex, followed by the addition of terbium (Tb)-labeled anti-GST antibody (product code PV3551), the indirect labeling of the receptor is achieved by the linkage with the GST on the receptor, and the ability of competitive coordination between the test compound and the fluorescent ligand with the receptor is evaluated by detecting the attenuation of the TR-FRET effect between the chromophore (Tb-anti-GST antibody) on the fluorescent label ERα and the fluorescent ligand (Fluormone ES2). We used the following sample preparation and test methods for the test of the synthesized compounds. The instrument we used is Beckman Coulter BioPAPTR FRD microfluidic workstation.
(1) Acoustic dispense 120 nL of the test compound into a black low volume 384 well assay plates;
(2) Preparation of 1×ERα-LBD/Tb-anti-GST antibody complex in ES2 buffer and incubation therein for 20 minutes;
(3) The 1×ES2 was further added to the above ERα-LBD/Tb-anti-GST antibody complex solution before the test;
(4) 12 μL of the ERα-LBD/Tb-anti-GST antibody complex solution prepared in step 3 was added to the wells of the assay plate;
(5) The plates were shielded from light and incubated at room temperature for one hour; (6) At 337 nm excitation light, the emission light at 490 nm and 520 nm was detected by BMG Phera STAR.
The test compounds of a series of concentrations (10 mM, 0.1 mM, 1 μM and 10 nM) prepared on a microplate were transferred to the analytical plate using Labcyte Echo 550. 120 nL of DMSO solution for each test compound was added to each well of the assay plate and tested at 12 different concentrations (100, 29.17, 10.42, 2.083, 1, 0.292, 0.104, 0.02083, 0.01, 0.0029, 0.00104, 0.001 μM). The TR-FRET primitive fluorescence data was used to obtain the fitting curve software such as Origin or Genedata. Half maximal inhibitory concentration IC50 of each compound was used to characterize the competitive binding ability of the test compound with the estrogen receptor ERα. IC50 represents the concentration of the test compound that was calculated when the coordination of the tracer fluorophore (ES2) with the estrogen receptor was reduced by 50%, and the IC50 was determined as shown in Table 3.

ERα = molecular target: T2, ERα (Homo sapiens, UniProt P03372); test: ERα down-regulation immunofluorescence assay in MCF-7 cells; type: cell-based; details: immunofluorescence of ERα level, read-out: IC50 (nM) ERα down-degradation
T2 construct: host or cells: MCF-7
T2 sequence (P03372 1-595): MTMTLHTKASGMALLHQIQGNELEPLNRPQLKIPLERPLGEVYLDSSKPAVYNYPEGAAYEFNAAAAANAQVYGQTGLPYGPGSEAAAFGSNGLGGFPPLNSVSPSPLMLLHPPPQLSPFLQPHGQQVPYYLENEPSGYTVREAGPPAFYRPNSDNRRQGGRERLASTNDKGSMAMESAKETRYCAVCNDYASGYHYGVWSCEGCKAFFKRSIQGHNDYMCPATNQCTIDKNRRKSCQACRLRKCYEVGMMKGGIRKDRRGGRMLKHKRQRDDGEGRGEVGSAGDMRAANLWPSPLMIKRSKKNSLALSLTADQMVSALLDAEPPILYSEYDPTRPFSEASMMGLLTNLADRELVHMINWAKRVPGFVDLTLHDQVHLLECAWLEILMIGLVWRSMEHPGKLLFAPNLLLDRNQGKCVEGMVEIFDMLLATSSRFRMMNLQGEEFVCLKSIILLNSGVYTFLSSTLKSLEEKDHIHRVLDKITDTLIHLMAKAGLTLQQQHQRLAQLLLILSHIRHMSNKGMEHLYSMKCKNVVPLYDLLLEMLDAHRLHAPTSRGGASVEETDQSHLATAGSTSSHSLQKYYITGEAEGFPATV
Method: The down-regulation of the preferred compounds of the present invention on the protein level of ERα is evaluated by immunofluorescence assay using human breast cancer cell line MCF-7. MCF-7 cells used in the experiment were revived directly from frozen cells (about 5×10^6). The MCF-7 frozen cell line (Sigma D5921) purchased from Sigma was stored in DMEM medium containing 2 mM […]. 5% (v/v) Charcoal/Dextran-treated bovine serum […] were added to the revived MCF-7 cells and the cell concentration was determined using Coulter Counter.
The cells used for the test were diluted to 3.75×10^4 cells/mL with culture medium and 40 μL/well of the above cell suspension was transferred to 384-well black transparent bottom plates and incubated overnight at 37° C., 5% CO2. 10 mM compound stock solutions were diluted to a series of test concentrations (10 mM, 0.1 mM, 1 μM, 0.01 μM etc.) and dispensed into cell plates. 20 μL of 11.1% (v/v) aqueous formaldehyde solution (phosphate buffered saline) was added to each of the different concentrations of the test compounds and MCF-7 cell culture solution (40 μL), and the final concentration of formaldehyde in the solution was 3.7% (v/v). Cells were fixed at room temperature for 20 minutes, washed twice with 250 μL of PBS/Proclin, and then 40 μL of PBS/Proclin was added and refrigerated at 4° C. The immunostaining of the protein was performed using the automated AutoElisa kit. The PBS/Proclin solution was aspirated from each plate well and then 40 μL of PBS containing 0.5% Tween 20 (v/v) was added for cell permeation. After one hour, the plate was washed with 250 μL of PBS/0.05% Tween 20/Proclin for three times, and 20 μL of ERα rabbit monoclonal antibody (Thermofisher) in PBS/Tween™ 20/3% (w/v) BSA solution (1:1000) was added. The plates were incubated overnight at 4° C., washed three times with 250 μL of PBS/Tween™ 20/Proclin, and then 20 μL of goat anti-rabbit IgG AlexaFluor 594 or goat anti-rabbit IgG AlexaFluor 488 antibody (containing Hoechst stain (1:5000) in PBS/Tween™ 20/3% (w/v) BSA solution was added, and the system was incubated at room temperature for one hour. After the plates were washed three times with 250 μL of PBS/0.05% (v/v) Tween™ 20/Proclin, 20 μL of PBS was added and the paltes were kept in dark place at 4° C. The level of estrogen receptor ERα in MCF-7 cells was calculated through Cellomics Arrayscan detection of fluorescence emission intensity at two emission wave bands at 594 nm (24-hour time point) and 488 nm (5-hour time point). The average fluorescence emission intensity of each cell is positively correlated with the ERα receptor level of the cell. The primitive fluorescence data was used to obtain the fitting curve by software such as Origin or Genedata. Half maximal inhibitory concentration IC50 was used to characterize the down-regulation of estrogen receptor ERα by the test compounds, which is the concentration of the test compound when the fluorescence emission intensity is reduced to 50% of the average maximum fluorescence intensity.

Compound | IC50 [1] | DC50 (ERα)
C[C@@H]1Cc2c([nH]c3ccccc23)[C@@H](c2c(F)cc(/C=C/C(=O)O)cc2F)N1CC1COC1 [Example 11, (E)-3-(3,5-difluoro-4-((1R,3R)-3-methyl-2-(oxetane-3-ylmethyl)-2,3,4,9-tetrahydro-1H-pyrido[3,4-b]indol-1-yl)phenyl)acrylic acid] | 10 to 250 nM | 10 to 250 nM
C[C@H]1Cc2c([nH]c3cccc(F)c23)[C@H](c2c(F)cc(/C=C/C(=O)O)cc2F)N1CC1(F)CC1 [Example 13, (E)-3-(3,5-difluoro-4-((1S,3S)-5-fluoro-2-((1-fluorocyclopropyl)methyl)-3-methyl-2,3,4,9-tetrahydro-1H-pyrido[3,4-b]indol-1-yl)phenyl)acrylic acid] | 250 to 1000 nM | 250 to 1000 nM
C[C@@H]1Cc2c([nH]c3ccccc23)[C@@H](c2c(F)cc(/C=C/C(=O)O)cc2F)N1CC1(F)CCCCC1 [Example 6, (E)-3-(3,5-difluoro-4-((1R,3R)-2-((1-fluorocyclohexyl)methyl)-3-methyl-2,3,4,9-tetrahydro-1H-pyrido[3,4-b]indol-1-yl)phenyl)acrylic acid] | 10 to 250 nM | 10 to 250 nM
C[C@@H]1Cc2c([nH]c3ccccc23)[C@@H](c2c(F)cc(/C=C/C(=O)O)cc2F)N1CC1CCCC1 [Example 3, (E)-3-(4-((1R,3R)-2-(cyclopentylmethyl)-3-methyl-2,3,4,9-tetrahydro-1H-pyrido[3,4-b]indol-1-yl)-3,5-difluorophenyl)acrylic acid] | 10 to 250 nM | 10 to 250 nM
C[C@@H]1Cc2c([nH]c3ccccc23)[C@@H](c2c(F)cc(/C=C/C(=O)O)cc2F)N1CC1CC1 [Example 2, (E)-3-(4-((1R,3R)-2-(cyclopropylmethyl)-3-methyl-2,3,4,9-tetrahydro-1H-pyrido[3,4-b]indol-1-yl)-3,5-difluorophenyl)acrylic acid] | 0.1 to 10 nM | 0.1 to 10 nM
